According to patent publication EP0230023B1, “Pharmaceutical compositions for the enhancement of wound healing” (MARION MERRELL DOW INC., priority 1985, dated 1987):

How the values were obtained:
granulation tissue [1] = test: Subcutaneous Ivalon sponge implantation, histological analysis of granulation tissue formation; assay type: in vivo, Sprague-Dawley rats; settings: score on the 0-4 scale; tested in a similar manner to collagen/sucrose octasulfate; potassium salts
Description: By means of subcutaneous implantation of Ivalon sponges the phase of granulation tissue formation in the repair process can be evaluated. Following a vigorous cleanup procedure the sponge material evokes only minimal inflammatory response. Sterile sponges prepared as set forth in Example 12 were injected with a 50 µl suspension of collagen/sucrose octasulfate suspension prepared as in Example 12. […] The sponges were surgically implanted into 350-500 g, male Sprague-Dawley rats. Before the implantation procedure three rats were anesthetized and their dorsal surfaces shaved and wiped with Predodyne (West Chemical Products, Lynbrook, N.Y.). Six 6 mm incisions were cut in groups of two (one on each side of the vertebral column rostrally, centrally and caudally), spaced equi-distant from each other between the pectoral and pelvic girdles on the dorsal surface. At each incision a pocket was made between the panniculus carnosus and the dermis and two sponges inserted into it, one rostrally and the other caudally; a total of 12 sponges were thus implanted in each animal. The position of each test preparation was alternated between the rostral, central and caudal positions to control the variation due to anatomical location. The incisions were closed with 11-mm Michel wound clips (Propper, Long Island City, N.Y.). Seven days following implantation the animals were sacrificed and the sponges surgically removed with their adhered connective tissue capsules. Controls, sponges injected with either PBS or collagen only were treated in a similar manner. In all, approximately 120 sponges per group were used in the study and randomly selected for biochemical and histologic analysis. The sponges were fixed in formalin and embedded in either plastic or Paraplast following dehydration. Sections were stained with hemotocylin and eosin, trichrome, silver or PAS. […] Mesenchymal cell infiltration was also scored on a predetermined scale from 0-4. […] Although the whole sponge area was used for analysis we noted that the most striking differences between the various treatments were evident in the center of the sponge. Therefore, the histologic appearance of the central zone was selected for presentation.

rabbit corneas = test: Rabbit cornea assay for angiogenesis; assay type: in vivo
Description: This may offer an explanation for the dense vascular bed that characterized the granulation tissue in the in-vivo experiments. Sucrose octasulate at concentrations of 0.1 to 100 µg/ml was encapsulated in Hydron and implanted in rabbit corneas. The method used was that described in Surgery 96:48-54, 1984. The […] solution (sucrose octasulfate or PBS) was mixed with an equal volume of Hydron and allowed to polymerize under reduced pressure. […] Eyes were evaluated at days 1 through 14 post-implantation for gross inflammation and, as described by Hunt, et al, in Surgery 96:48-54, 1984, for angiogenesis. Corneal neovascularization was graded on a scale of 0-4+ (integers only being assigned). Zero denotes a normal eye with no ingrowth on limbal vessels into the corneal stroma; 1+, up to 1 mm of capillary ingrowth in a localized arc adjacent to the injection site; 2+, […] ingrowth; 3+, 2-3 mm ingrowth; and 4+, 3 mm or greater ingrowth in a wide arc along the limbal edge toward the injection site. […] To ascertain that the observed angiogenesis was not secondary to an inflammatory process some eyes with a positive response were removed and stained with H&E and a nonspecific esterase stain as early as two days after implantation.

fibroblasts = test: Cell migration assay (Boyden chamber); assay type: cell-based; set-up: Chemokinesis: scale not given here
Description: Stimulation of directed movement of fibroblasts was assayed as described by Banda M.J., Knighton D.R., Hunt T.K., Werb A., Isolation of a nonmitogenic angiogenesis factor from wound fluid, Proc. Natl. Acad. Sci. 79:7773-7777, 1982. Briefly, solutions of sucrose octasulfate in PBS in concentrations resulting in final concentrations ranging from 10 -² to 10 -⁷ g/ml diluted to a final volume of 300 µℓ in DMEM supplemented with 10 percent rabbit platelet-poor plasma serum were placed in the bottom of Boyden blind-well chambers. Polylysine-coated, 5 µ -pore diameter, polycarbonate filters (Nucleopore) were placed over the test solution and 1.75-3.0 x 10⁶ fibroblasts suspended in DMEM added to the top compartment. The chambers were incubated for two and a half hours at 37 °C,
At the end of incubation of the top filter was fixed, stained and evaluated by counting the number of cells that had migrated to the bottom side of the filter. For each experiment five random fields per filter and at least 15 filters per each concentration of sucrose octasulfate were conducted. […]

pressure ulcer = test: Clinical double-blind dose-response trial in pressure ulcers; assay type: in vivo, patients; settings: for Results: twice daily
Description: Five patients were subjected to a dose-response trial using sucrose octasulfate in water. The test was a double-blind trial with four treatment arms, 0.1, 1.0, or 10mg/ml or placebo (sterile water for irrigation). Patients were entered following debridement of the study pressure ulcer and a gauze sponge was saturated with sucrose octasulfate solution (i.e. sucrose octasulfate in sterile water vehicle) or placebo and packed into the ulcer crater, then covered with biobrane dressing to keep the area moist. Treatments were applied twice daily for a 30 day interval for four patients and for three weeks for the fifth patient.
The patient population was bedridden comatose adults with chronic ulcers having failed with some form of previous treatment(s). The patients were kept on the same ward as they had been during months prior to the trials so nursing care was uniform prior to and during the study. Thus, any response is favourable. The first four cases are nearly uniform in that three of four treatment ulcers were trochanteric.

granulation tissue [2] = test: Subcutaneous Ivalon sponge implantation, histological analysis of granulation tissue formation; assay type: in vivo, Sprague-Dawley rats; settings: no collagen

## O=S(=O)([O-])OC[C@H]1O[C@@](COS(=O)(=O)[O-])(O[C@H]2O[C@H](COS(=O)(=O)[O-])[C@@H](OS(=O)(=O)[O-])[C@H](OS(=O)(=O)[O-])[C@H]2OS(=O)(=O)[O-])[C@@H](OS(=O)(=O)[O-])[C@@H]1OS(=O)(=O)[O-].[K+].[K+].[K+].[K+].[K+].[K+].[K+].[K+] [Sucrose Octasulfate, potassium sucrose octasulfate]
Granulation tissue [1]
  Sponge: 4
Rabbit corneas; 0.1 µg/ml
  extent of angiogenesis: negative
Rabbit corneas; 0.1 µg/ml in Hydron, 5 corneas implanted
  No. Positive Responses: 0
Rabbit corneas; 1 µg/ml in Hydron, 6 corneas implanted
  No. Positive Responses: 1
Rabbit corneas; 10 µg/ml in Hydron, 5 corneas implanted
  No. Positive Responses: 4
Rabbit corneas; 100 µg/ml in Hydron, 9 corneas implanted
  No. Positive Responses: 8
Rabbit corneas; grade on scale 0-4+ in rabbit cornea, potassium salts
  Angiogenesis: 4
Rabbit corneas; implantation of 10 and 100 µg/ml
  angiogenic response: most potent angiogenic response
Rabbit corneas; lower concentration, 1.0 g/ml as printed
  extent of angiogenesis: decreased
fibroblasts; score, Boyden chamber, scale not defined, potassium salts
  Chemokinesis: 4
fibroblasts; sucrose octasulfate 10⁻² g/ml, 2.5 hours at 37 °C
  Migrated fibroblasts, fold increase over negative control: 0.4 fold increase over negative control
fibroblasts; sucrose octasulfate 10⁻³ g/ml
  Migrated fibroblasts, fold increase over negative control: 0.4 fold increase over negative control
fibroblasts; sucrose octasulfate 10⁻⁴ g/ml
  Migrated fibroblasts, fold increase over negative control: 0.6 fold increase over negative control
fibroblasts; sucrose octasulfate 10⁻⁵ g/ml
  Migrated fibroblasts, fold increase over negative control: 2.2 fold increase over negative control
fibroblasts; sucrose octasulfate 10⁻⁶ g/ml
  Migrated fibroblasts, fold increase over negative control: 2.1 fold increase over negative control
fibroblasts; sucrose octasulfate 10⁻⁷ g/ml
  Migrated fibroblasts, fold increase over negative control: 1.1 fold increase over negative control
Pressure ulcer; Patient 001, 10 mg/ml
  Depth (prestudy): 0.5 cm
Pressure ulcer; Patient 001, 10 mg/ml in water, 30 days
  Results: no reduction in ulcer depth
Pressure ulcer; Patient 001, 10 mg/ml, 30 days
  Depth (after treatment): 0.5 cm
Pressure ulcer; Patient 002, 1 mg/ml
  Depth (prestudy): 3.0 cm
Pressure ulcer; Patient 002, 1 mg/ml in water, 30 days
  Results: reduction in ulcer depth
Pressure ulcer; Patient 002, 1 mg/ml, 30 days
  Depth (after treatment): 1.5 cm
Pressure ulcer; Patient 003, 0.1 mg/ml
  Depth (prestudy): 0.5 cm
Pressure ulcer; Patient 003, 0.1 mg/ml in water, 30 days
  Results: some reduction in ulcer depth
Pressure ulcer; Patient 003, 0.1 mg/ml, 30 days
  Depth (after treatment): 0.3 cm
Pressure ulcer; Patient 005, 10 mg/ml
  Depth (prestudy): 2.8 cm
Pressure ulcer; Patient 005, 10 mg/ml in water, three weeks
  Results: reduction in ulcer depth
Pressure ulcer; Patient 005, 10 mg/ml, after 3 weeks of treatment
  Depth (after treatment): 1.6 cm
Granulation tissue [2]; 10.0 mg/ml sucrose octasulfate in Hydron
  hemorrhage in sponge: local hemorrhage
Granulation tissue [2]; 50 µl of Hydron containing either 1.0 mg/ml or 0.1 mg/ml sucrose octasulfate
  histologic appearance of sponge (granulation tissue): formation of granulation tissue densely populated with fibroblasts and highly vascularized with new capillary growth
